The target of one assay is T1, MoChi7A (Pyricularia oryzae, UniProt G4NAH7).
T1 construct: gene MGG_09717
In kind it is biochemical. The note with it: apparent; O2 as acceptor; 50 mM NaOAc pH 5.2, 35 °C; read-out: Enzyme / MoChi7A / Cellotriose.

Another assay addresses T2, FgChi7B (Fusarium graminearum, UniProt A0A098DND1).
T2 construct: gene FGRAMPH1_01T15319
The note with it: covalent; bi-covalent, 6-S-cysteinyl C162 and 8alpha-N1-histidyl H102.

Assay [1] deals with T3, FgCelDH7C (Fusarium graminearum, UniProt I1RWY4).
T3 construct: gene FGRAMPH1_01T10923
The class given is binding. The note with it: covalent; mono-covalent histidyl tether.

Assay [2] has as its target T3, FgCelDH7C. The class given is biochemical. The note with it: apparent, 0.1 mM DCIP as acceptor, 50 mM HEPES pH 7.0, 35 °C.

Like-named read-outs stand apart in the source and are kept apart here.

The source of these data is publication PMC8035211 (Nature Communications, 2021).

T1 sequence (G4NAH7 21-718 limits assumed): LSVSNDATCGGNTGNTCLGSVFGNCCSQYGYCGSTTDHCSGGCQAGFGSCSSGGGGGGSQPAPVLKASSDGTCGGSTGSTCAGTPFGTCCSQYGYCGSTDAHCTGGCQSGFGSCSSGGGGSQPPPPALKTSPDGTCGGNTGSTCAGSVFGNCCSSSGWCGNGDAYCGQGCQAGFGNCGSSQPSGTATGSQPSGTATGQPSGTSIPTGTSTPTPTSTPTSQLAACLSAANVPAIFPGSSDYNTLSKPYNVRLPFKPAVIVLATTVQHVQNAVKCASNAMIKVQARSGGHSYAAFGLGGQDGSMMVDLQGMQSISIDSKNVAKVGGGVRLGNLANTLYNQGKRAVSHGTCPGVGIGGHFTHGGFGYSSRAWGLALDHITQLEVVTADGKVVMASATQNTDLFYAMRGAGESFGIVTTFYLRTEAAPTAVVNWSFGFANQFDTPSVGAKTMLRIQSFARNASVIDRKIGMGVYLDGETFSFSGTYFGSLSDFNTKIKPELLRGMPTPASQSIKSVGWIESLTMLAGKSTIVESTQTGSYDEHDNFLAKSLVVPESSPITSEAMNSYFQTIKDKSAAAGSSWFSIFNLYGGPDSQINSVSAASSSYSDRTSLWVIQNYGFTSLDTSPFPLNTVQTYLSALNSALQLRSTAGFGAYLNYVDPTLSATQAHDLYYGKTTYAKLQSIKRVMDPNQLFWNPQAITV
T3 sequence (I1RWY4 24-499 limits assumed): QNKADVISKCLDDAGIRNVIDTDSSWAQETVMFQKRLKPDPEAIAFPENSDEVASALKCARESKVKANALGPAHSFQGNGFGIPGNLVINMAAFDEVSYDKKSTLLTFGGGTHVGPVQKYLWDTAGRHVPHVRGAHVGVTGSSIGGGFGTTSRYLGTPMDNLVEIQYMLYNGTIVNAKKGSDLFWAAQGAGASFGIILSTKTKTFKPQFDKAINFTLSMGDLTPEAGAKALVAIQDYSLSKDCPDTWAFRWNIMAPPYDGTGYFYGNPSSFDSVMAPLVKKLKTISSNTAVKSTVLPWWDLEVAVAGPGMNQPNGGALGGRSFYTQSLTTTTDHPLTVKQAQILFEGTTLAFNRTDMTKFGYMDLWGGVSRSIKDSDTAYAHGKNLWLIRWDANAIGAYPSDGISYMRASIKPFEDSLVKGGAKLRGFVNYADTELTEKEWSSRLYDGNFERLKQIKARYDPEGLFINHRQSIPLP
T2 sequence (A0A098DND1 21-504 limits assumed): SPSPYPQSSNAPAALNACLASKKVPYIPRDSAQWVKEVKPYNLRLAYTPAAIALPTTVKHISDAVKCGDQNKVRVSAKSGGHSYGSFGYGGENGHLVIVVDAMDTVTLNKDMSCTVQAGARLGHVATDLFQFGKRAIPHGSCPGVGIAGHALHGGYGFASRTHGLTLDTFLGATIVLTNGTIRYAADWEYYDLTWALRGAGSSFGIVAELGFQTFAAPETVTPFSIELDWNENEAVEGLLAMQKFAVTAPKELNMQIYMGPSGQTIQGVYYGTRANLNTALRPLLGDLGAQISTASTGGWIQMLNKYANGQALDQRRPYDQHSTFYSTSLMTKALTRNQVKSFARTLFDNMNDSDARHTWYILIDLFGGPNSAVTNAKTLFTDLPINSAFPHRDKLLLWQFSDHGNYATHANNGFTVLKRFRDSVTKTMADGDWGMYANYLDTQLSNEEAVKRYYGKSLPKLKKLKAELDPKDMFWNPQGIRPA

Regarding `CC(=O)N[C@H]1C(O)O[C@H](CO)[C@@H](O)[C@@H]1O` (some centres unmarked) [GlcNAc], the Km at MoChi7A was 800 ± 50 µM.
As to `Cc1cc2nc3c(=O)[nH]c(=O)nc-3n(C[C@H](O)[C@H](O)[C@H](O)COP(=O)(O)OP(=O)(O)OC[C@H]3O[C@@H](n4cnc5c(N)ncnc54)[C@H](O)[C@@H]3O)c2cc1C` [FAD], the “crystal structure, 2.4 Å” value at FgChi7B is listed as “isoalloxazine ring of the FAD cofactor in FgChi7B is bi-covalently anchored at the C6 atom”. For the same molecule, the “crystal structure, 1.6 Å” value at FgCelDH7C [1] is recorded as “FgCelDH7C is mono-covalently histidyl-tethered due to the substitution of the FAD-tethering cysteine to a glycine”.
As for `CC(=O)N[C@H]1[C@H](O[C@H]2[C@H](O)[C@@H](NC(C)=O)C(O)O[C@@H]2CO)O[C@H](CO)[C@@H](O)[C@@H]1O` (some centres unmarked) [Chitobiose], the Km at MoChi7A was 64 ± 10 µM.
On the same count and under the same terms, the figure for `CC(=O)N[C@H]1C(O)O[C@H](CO)[C@H](O)[C@@H]1O` (some centres unmarked) [GalNAc] is 1690 ± 120 µM.
Turning to `OC[C@H]1O[C@@H](O[C@H]2[C@H](O)[C@@H](O)[C@H](O[C@H]3[C@H](O)[C@@H](O)C(O)O[C@@H]3CO)O[C@@H]2CO)[C@H](O)[C@@H](O)[C@@H]1O` (some centres unmarked) [Cellotriose], at FgCelDH7C [2] (read-out: Enzyme / Cellotriose, read-out: Enzyme / MoChi7A / Cellotriose), the Km was 3940 ± 220 µM.
For `OC[C@H]1O[C@@H](O[C@H]2[C@H](O)[C@@H](O)[C@H](O[C@H]3[C@H](O)[C@@H](O)[C@H](O[C@H]4[C@H](O)[C@@H](O)C(O)O[C@@H]4CO)O[C@@H]3CO)O[C@@H]2CO)[C@H](O)[C@@H](O)[C@@H]1O` (some centres unmarked) [Cellotetraose], the Km at FgCelDH7C [2] (read-out: Enzyme / PbChi7A / Cellotetraose) amounted to 6060 ± 270 µM.
In the case of `OC[C@H]1O[C@@H](O[C@H]2[C@H](O)[C@@H](O)C(O)O[C@@H]2CO)[C@H](O)[C@@H](O)[C@@H]1O` (some centres unmarked) [Cellobiose], the Km at FgCelDH7C [2] (read-out: Parameter / Cellobiose) stood at 5350 ± 390 µM.
